Marks after values point to notes of the source that are not given here.

This assay deals with collapsibility of the upper airways. Nature of the assay: Animal model of obstructive sleep apnoea in the pig (collapse of the upper airways under negative pressure after nasal administration). The class given is in vivo, German Landrace pigs. The source says: The effects of the formulations according to the invention of the inhibitors of TASK-1 and/or TASK-3 channels on the activation threshold of the genioglossus muscle by negative pressure and the collapsibility of the upper airways were investigated in a pig model for obstructive sleep apnoea. Using negative pressure, it is possible to induce collapse and thus obstruction of the upper airways in anaesthetized, spontaneously breathing pigs [Wirth et al., Sleep 36, 699-708 (2013)]. German Landrace pigs were used for the model. Since the nasal axis is in an almost vertical position in humans in a horizontal sleeping position, the pigs in the experiments were fixed in a sitting position (70 degrees), wherein the nose pointed upwards. After nasal administration, the formulation therefore flowed downwards over all regions of the upper airways. The pigs were anaesthetized and tracheotomized. One cannula each was inserted into the rostral and the caudal part of the trachea. Using a T connector, the rostral cannula was connected on the one hand to a device generating negative pressure and on the other hand to the caudal cannula. Using a T connector, the caudal cannula was connected to the rostral cannula and to a tube which allowed spontaneous breathing circumventing the upper airways. By appropriate closing and opening of the tubes it was thus possible for the pig to change from normal nasal breathing to breathing via the caudal cannula during the time when the upper airways were isolated and were connected to the device for generating negative pressure. The muscle activity of the Musculus genioglossus was recorded by electromyogram (EMG). At certain points in time, the collapsibility of the upper airways was tested by having the pig breathe via the caudal cannula and applying negative pressures of −50, −100 and −150 mbar (corresponding to −50, −100 and −150 cm water column (cm H2O)) to the upper airways. This caused the upper airways to collapse, which manifested itself in an interruption of the airflow and a pressure drop in the tube system. This test was conducted prior to administration of the test substance and at certain intervals after administration of the test substance. An appropriately effective test substance could prevent this collapse of the airways in the inspiratory phase. After changeover from nasal breathing to breathing via the caudal cannula, it was not possible to measure any EMG activity of the Musculus genioglossus in the anaesthetized pig. As a further test, the negative pressure at which EMG activity restarted was then determined. This threshold value was, if a test substance was effective, shifted to more positive values. The test was likewise conducted prior to the administration of the test substance and at certain intervals after the administration of the test substance. The test substance was administered by the nasal route. The results shown in the tables which follow were conducted with the compounds listed in Table 1 as Example 1, Example 3 and Example 4. Unless stated otherwise, the data were measured at a negative pressure of −100 mbar (corresponding to −100 cm water column (cm H2O)) on the upper airways. The active ingredients listed in Table 1 as Example 1, Example 3 and Example 4 were dissolved in the various formulations listed in Table 2 below and administered in an amount of 0 μg, 3 μg, 10 μg, 30 μg or 100 μg per pig. The active ingredient formulation or the pure vehicle was each administered with a pipette at a volume of 400 μl in each nostril. The duration of action in this pig model is defined as the time [min] in which a collapse of the upper airways was not observed in any animal, as a mean value of the specified number of animals. A duration of action specified as “>” X min signifies that the experiment was terminated at X min and up to this point a collapse of the upper airways was still not observed in any animal

`O=C(C1CCCC1)N1CCN(Cc2c(-c3ccc(Br)cc3)nc3ccccn23)CC1` [Example 1, (4-{[2-(4-bromophenyl)imidazo[1,2-a]pyridin-3-yl]methyl}piperazin-1-yl)(cyclopentyl)methanone]: the “Duration of action, mean value” is, setting by setting: (Formulation 1 (0% PEG400), 10 μg nasal, reduced pressure -50 mbar) 150 min; (Formulation 1 (0% PEG400), 10 μg nasal, reduced pressure -100 mbar) 120 min; (Formulation 3 (20% w/v PEG400), 10 μg nasal, reduced pressure -50 mbar) greater than 210 min; (Formulation 3 (20% w/v PEG400), 10 μg nasal, reduced pressure -100 mbar) 180 min.

Turning to `COc1cccc(C(=O)N2CCN(Cc3c(-c4ccc(Cl)cc4)nc4ccccn34)CC2)n1` [Example 3, (4-{[2-(4-chlorophenyl)imidazo[1,2-a]pyridin-3-yl]methyl}piperazin-1-yl)(6-methoxypyridin-2-yl)methanone], the “Duration of action, mean value” by setting is: (Formulation 1 (phosphate buffer pH 7/polysorbate 80 90/10, 0% PEG400), 3 μg nasal per pig, -100 mbar) 150 min; (Formulation 1 (phosphate buffer pH 7/polysorbate 80 90/10, 0% PEG400), 30 μg nasal per pig, -100 mbar) 180* min; (Formulation 2 (100% w/v PEG400), 3 μg nasal, -100 mbar) greater than 240 min; (Formulation 3 (phosphate buffer pH 7/polysorbate 80/PEG400 70/10/20), 3 μg nasal per pig, -100 mbar) 180 min; (Formulation 3 (phosphate buffer pH 7/polysorbate 80/PEG400 70/10/20), 30 μg nasal per pig, -100 mbar) 300 min; (Formulation 4 (5% w/v PEG400, 10% polysorbate 80, 85% phosphate buffer pH 7), 3 μg nasal, -100 mbar) 180 min. Further, the “Duration of action, mean value” (Formulation 5 (2.5% w/v PEG400, 10% polysorbate 80, 87.5% phosphate buffer pH 7), 3 μg nasal, -100 mbar) worked out at 150 min; the “Duration of action, mean value” (Formulation 6 (20% w/v PEG400, 2.5% w/v glycerol 85%, 10% polysorbate 80, 67.5% phosphate buffer pH 7), 3 μg nasal, -100 mbar) amounted to 240 min; the “Duration of action, mean value” (Formulation 7 (20% w/v propylene glycol, 10% polysorbate 80, 70% phosphate buffer pH 7), 30 μg nasal, -100 mbar) is recorded as 180 min; the “Duration of action, mean value” (Formulation 9 (1.25% w/v Na-CMC, 10% polysorbate 80, 88.75% phosphate buffer pH 7, no PEG), 3 μg nasal, -100 mbar) is 120 min.

For `O=C(c1ccccc1F)N1CCN(Cc2c(-c3ccc(Br)cc3)nc3ccccn23)CC1` [Example 4, (4-{[2-(4-bromophenyl)imidazo[1,2-a]pyridin-3-yl]methyl}piperazin-1-yl)(2-fluorophenyl)methanone], the “Duration of action, mean value” (Formulation 1 (0% PEG400), 100 μg nasal, reduced pressure -50 mbar) is 180 min; the “Duration of action, mean value” (Formulation 1 (0% PEG400), 100 μg nasal, reduced pressure -100 mbar) is reported as 180 min; the “Duration of action, mean value” (Formulation 3 (20% w/v PEG400), 100 μg nasal, reduced pressure -50 mbar) is listed as greater than 210 min; the “Duration of action, mean value” (Formulation 3 (20% w/v PEG400), 100 μg nasal, reduced pressure -100 mbar) is recorded as 180 min.

The values are drawn from patent US20200085734A1, “PHARMACEUTICAL DOSAGE FORMS CONTAINING TASK-I AND TASK-3 CHANNEL INHIBITORS, AND THE USE OF SAME IN BREATHING DISORDER THERAPY” (priority 2016, published 2020).
